Assay results from ChEMBL document CHEMBL4507258 (2021).

Key:
[1] = system: Epidermal growth factor receptor (Homo sapiens), P00533 [G719S]; settings: Compound concentration 1000.0 nM
[2] = molecular target: Serine/threonine-protein kinase Sgk1 (Homo sapiens) (UniProt O00141); settings: Compound concentration 1000.0 nM
[3] = molecular target: Receptor-interacting serine/threonine-protein kinase 1 (Homo sapiens) (UniProt Q13546); settings: Compound concentration 1000.0 nM
[4] = molecular target: Myotonin-protein kinase (Homo sapiens) (UniProt Q09013); settings: Compound concentration 1000.0 nM
[5] = molecular target: Serine/threonine-protein kinase Nek4 (Homo sapiens) (UniProt P51957); settings: Compound concentration 1000.0 nM
[6] = molecular target: Ribosomal protein S6 kinase alpha-1 (Homo sapiens) (UniProt Q15418); settings: Compound concentration 1000.0 nM
[7] = molecular target: Cyclin-dependent kinase 19 (Homo sapiens) (UniProt Q9BWU1); settings: Compound concentration 1000.0 nM
[8] = molecular target: Aurora kinase B (Homo sapiens) (UniProt Q96GD4); settings: Compound concentration 1000.0 nM
[9] = molecular target: Dual specificity protein kinase CLK3 (Homo sapiens) (UniProt P49761); settings: Compound concentration 1000.0 nM
[10] = molecular target: Serine/threonine-protein kinase B-raf (Homo sapiens) (UniProt P15056); settings: Compound concentration 1000.0 nM
[11] = molecular target: Tyrosine-protein kinase TXK (Homo sapiens) (UniProt P42681); settings: Compound concentration 1000.0 nM
[12] = system: Epidermal growth factor receptor (Homo sapiens), P00533 [L861Q]; settings: Compound concentration 1000.0 nM
[13] = molecular target: Casein kinase I isoform delta (Homo sapiens) (UniProt P48730); settings: Compound concentration 1000.0 nM
[14] = molecular target: Casein kinase I isoform epsilon (Homo sapiens) (UniProt P49674); settings: Compound concentration 1000.0 nM
[15] = molecular target: Calcium/calmodulin-dependent protein kinase type II subunit gamma (Homo sapiens) (UniProt Q13555); settings: Compound concentration 1000.0 nM
[16] = molecular target: Tyrosine-protein kinase JAK2 (Homo sapiens) (UniProt O60674); settings: Compound concentration 1000.0 nM
[17] = molecular target: Bone morphogenetic protein receptor type-1A (Homo sapiens) (UniProt P36894); settings: Compound concentration 1000.0 nM
[18] = molecular target: Serine/threonine-protein kinase Nek2 (Homo sapiens) (UniProt P51955); settings: Compound concentration 1000.0 nM
[19] = system: Epidermal growth factor receptor (Homo sapiens), P00533 [L858R,T790M]; settings: Compound concentration 1000.0 nM
[20] = molecular target: cGMP-dependent protein kinase 1 (Homo sapiens) (UniProt Q13976); settings: Compound concentration 1000.0 nM
[21] = molecular target: Macrophage-stimulating protein receptor (Homo sapiens) (UniProt Q04912); settings: Compound concentration 1000.0 nM
[22] = molecular target: Mitogen-activated protein kinase kinase kinase 4 (Homo sapiens) (UniProt Q9Y6R4); settings: Compound concentration 1000.0 nM
Mu-type opioid receptor = Mu-type opioid receptor (Homo sapiens, UniProt P35372); settings: Compound concentration 10.0 uM
[23] = molecular target: Myosin light chain kinase, smooth muscle (Homo sapiens) (UniProt Q15746); settings: Compound concentration 1000.0 nM
[24] = molecular target: Dual specificity protein kinase CLK1 (Homo sapiens) (UniProt P49759); settings: Compound concentration 1000.0 nM
[25] = molecular target: Kappa-type opioid receptor (Homo sapiens, UniProt P41145); settings: Compound concentration 10.0 uM
[26] = molecular target: STE20/SPS1-related proline-alanine-rich protein kinase (Homo sapiens) (UniProt Q9UEW8); settings: Compound concentration 1000.0 nM
[27] = system: Fibroblast growth factor receptor 3 (Homo sapiens), P22607 [G697C]; settings: Compound concentration 1000.0 nM
[28] = molecular target: Serine/threonine-protein kinase NIM1 (Homo sapiens) (UniProt Q8IY84); settings: Compound concentration 1000.0 nM
[29] = molecular target: Hormonally up-regulated neu tumor-associated kinase (Homo sapiens) (UniProt P57058); settings: Compound concentration 1000.0 nM
[30] = molecular target: cAMP-dependent protein kinase catalytic subunit beta (Homo sapiens) (UniProt P22694); settings: Compound concentration 1000.0 nM
[31] = molecular target: Serine/threonine-protein kinase PAK 2 (Homo sapiens) (UniProt Q13177); settings: Compound concentration 1000.0 nM
[32] = system: Epidermal growth factor receptor (Homo sapiens), P00533 [UNDEFINED MUTATION]; settings: Compound concentration 1000.0 nM
[33] = molecular target: Serine/threonine-protein kinase STK11 (Homo sapiens) (UniProt Q15831); settings: Compound concentration 1000.0 nM
[34] = molecular target: Cyclin-dependent kinase-like 1 (Homo sapiens) (UniProt Q00532); settings: Compound concentration 1000.0 nM
[35] = molecular target: Mitogen-activated protein kinase 8 (Homo sapiens) (UniProt P45983); settings: Compound concentration 1000.0 nM
[36] = molecular target: Sodium-dependent dopamine transporter (Homo sapiens) (UniProt Q01959); settings: Compound concentration 10.0 uM
[37] = molecular target: T1, Muscarinic acetylcholine receptor M2 (Homo sapiens) (UniProt P08172); settings: Compound concentration 10.0 uM
T1 sequence (whole entry): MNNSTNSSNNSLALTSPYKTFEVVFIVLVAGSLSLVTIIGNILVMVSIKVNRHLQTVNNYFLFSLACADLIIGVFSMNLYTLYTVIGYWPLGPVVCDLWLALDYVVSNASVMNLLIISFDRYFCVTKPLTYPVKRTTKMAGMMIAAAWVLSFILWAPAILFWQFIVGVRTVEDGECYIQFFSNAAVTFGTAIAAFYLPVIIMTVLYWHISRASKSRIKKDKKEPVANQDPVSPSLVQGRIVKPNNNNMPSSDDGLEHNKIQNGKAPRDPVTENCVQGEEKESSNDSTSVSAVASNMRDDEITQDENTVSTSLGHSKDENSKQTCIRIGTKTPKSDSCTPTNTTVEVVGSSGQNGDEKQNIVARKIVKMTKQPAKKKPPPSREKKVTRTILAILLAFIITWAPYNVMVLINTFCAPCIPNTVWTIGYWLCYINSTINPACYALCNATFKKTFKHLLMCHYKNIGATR

[38] = system: Epidermal growth factor receptor (Homo sapiens), P00533 [T790M]; settings: Compound concentration 1000.0 nM

Chain of Dual specificity protein kinase CLK1 (Homo sapiens) (P49759 whole entry, looked up): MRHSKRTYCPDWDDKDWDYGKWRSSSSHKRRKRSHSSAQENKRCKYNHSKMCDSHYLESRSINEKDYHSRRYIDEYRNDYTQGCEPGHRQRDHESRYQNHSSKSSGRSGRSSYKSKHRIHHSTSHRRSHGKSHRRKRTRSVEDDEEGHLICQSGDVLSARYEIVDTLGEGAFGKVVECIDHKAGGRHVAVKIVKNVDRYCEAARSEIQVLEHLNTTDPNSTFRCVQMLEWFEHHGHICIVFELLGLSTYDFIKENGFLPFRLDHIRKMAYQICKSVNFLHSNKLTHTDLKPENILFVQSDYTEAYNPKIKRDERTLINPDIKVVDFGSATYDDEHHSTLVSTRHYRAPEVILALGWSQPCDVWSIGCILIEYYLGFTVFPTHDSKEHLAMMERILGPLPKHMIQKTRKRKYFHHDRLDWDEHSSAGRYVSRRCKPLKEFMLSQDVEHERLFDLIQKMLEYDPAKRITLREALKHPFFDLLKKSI
Chain of Myotonin-protein kinase (Homo sapiens) (Q09013 whole entry): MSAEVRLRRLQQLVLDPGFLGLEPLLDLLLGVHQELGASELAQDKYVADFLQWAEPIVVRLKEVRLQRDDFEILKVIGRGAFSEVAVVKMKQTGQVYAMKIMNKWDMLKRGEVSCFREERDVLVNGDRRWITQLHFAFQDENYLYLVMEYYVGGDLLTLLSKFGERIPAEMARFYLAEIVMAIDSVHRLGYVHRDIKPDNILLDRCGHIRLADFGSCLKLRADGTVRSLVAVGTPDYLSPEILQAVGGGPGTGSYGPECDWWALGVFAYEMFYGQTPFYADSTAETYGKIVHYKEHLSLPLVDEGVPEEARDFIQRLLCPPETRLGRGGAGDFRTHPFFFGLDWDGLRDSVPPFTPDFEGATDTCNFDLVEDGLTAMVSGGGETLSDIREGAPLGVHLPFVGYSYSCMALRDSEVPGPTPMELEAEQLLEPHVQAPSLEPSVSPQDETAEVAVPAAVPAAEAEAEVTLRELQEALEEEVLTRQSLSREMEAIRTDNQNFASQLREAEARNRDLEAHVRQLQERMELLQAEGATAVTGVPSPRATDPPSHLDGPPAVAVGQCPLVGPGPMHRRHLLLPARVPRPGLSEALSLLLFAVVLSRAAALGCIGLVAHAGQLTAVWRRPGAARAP
Chain of Receptor-interacting serine/threonine-protein kinase 1 (Homo sapiens) (Q13546 whole entry): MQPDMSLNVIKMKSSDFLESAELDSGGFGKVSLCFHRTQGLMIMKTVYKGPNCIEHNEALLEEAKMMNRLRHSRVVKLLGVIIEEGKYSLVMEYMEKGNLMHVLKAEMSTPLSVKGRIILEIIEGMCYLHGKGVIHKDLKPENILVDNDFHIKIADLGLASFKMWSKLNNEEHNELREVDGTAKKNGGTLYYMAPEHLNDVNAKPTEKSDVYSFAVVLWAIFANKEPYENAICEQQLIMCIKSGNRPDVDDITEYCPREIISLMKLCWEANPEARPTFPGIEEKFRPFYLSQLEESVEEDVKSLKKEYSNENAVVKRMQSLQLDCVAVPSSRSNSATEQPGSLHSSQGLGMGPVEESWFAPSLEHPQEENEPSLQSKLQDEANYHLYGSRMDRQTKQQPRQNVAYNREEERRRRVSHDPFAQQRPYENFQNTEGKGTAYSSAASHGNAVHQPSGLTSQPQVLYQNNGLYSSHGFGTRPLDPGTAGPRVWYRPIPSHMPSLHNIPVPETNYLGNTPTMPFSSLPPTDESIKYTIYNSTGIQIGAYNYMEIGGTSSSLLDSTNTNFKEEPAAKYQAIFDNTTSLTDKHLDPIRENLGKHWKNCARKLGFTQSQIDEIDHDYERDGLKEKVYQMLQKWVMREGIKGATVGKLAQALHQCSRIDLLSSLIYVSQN
Chain of Kappa-type opioid receptor (P41145 whole entry): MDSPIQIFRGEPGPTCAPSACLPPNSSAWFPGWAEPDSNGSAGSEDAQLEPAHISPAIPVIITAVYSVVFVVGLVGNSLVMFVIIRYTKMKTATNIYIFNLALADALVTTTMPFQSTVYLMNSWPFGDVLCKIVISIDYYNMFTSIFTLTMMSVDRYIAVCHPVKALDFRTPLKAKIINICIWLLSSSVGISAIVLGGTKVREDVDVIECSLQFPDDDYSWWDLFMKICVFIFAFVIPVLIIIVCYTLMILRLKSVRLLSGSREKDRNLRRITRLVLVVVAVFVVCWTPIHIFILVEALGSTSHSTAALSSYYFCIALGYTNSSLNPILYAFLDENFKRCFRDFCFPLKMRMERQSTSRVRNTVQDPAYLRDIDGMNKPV
Chain of Hormonally up-regulated neu tumor-associated kinase (Homo sapiens) (P57058 whole entry): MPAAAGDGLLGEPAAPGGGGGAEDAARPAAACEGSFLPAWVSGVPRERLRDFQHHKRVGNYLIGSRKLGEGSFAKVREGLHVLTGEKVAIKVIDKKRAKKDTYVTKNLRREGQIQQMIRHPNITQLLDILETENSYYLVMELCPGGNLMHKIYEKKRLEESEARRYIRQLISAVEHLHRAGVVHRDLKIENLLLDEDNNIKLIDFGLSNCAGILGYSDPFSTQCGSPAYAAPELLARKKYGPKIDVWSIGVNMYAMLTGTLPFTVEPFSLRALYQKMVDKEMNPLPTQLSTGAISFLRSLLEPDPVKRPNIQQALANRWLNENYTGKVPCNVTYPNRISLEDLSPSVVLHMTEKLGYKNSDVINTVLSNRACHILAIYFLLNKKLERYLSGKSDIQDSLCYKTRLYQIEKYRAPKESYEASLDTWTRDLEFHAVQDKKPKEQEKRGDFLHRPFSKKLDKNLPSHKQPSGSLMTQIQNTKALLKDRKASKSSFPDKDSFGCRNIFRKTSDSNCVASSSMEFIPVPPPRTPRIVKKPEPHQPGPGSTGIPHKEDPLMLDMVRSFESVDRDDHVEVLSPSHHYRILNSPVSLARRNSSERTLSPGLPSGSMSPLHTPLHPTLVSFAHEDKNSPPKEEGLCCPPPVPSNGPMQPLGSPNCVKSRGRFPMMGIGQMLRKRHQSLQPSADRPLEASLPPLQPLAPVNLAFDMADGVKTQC
Chain of Serine/threonine-protein kinase Nek4 (Homo sapiens) (P51957 whole entry, looked up): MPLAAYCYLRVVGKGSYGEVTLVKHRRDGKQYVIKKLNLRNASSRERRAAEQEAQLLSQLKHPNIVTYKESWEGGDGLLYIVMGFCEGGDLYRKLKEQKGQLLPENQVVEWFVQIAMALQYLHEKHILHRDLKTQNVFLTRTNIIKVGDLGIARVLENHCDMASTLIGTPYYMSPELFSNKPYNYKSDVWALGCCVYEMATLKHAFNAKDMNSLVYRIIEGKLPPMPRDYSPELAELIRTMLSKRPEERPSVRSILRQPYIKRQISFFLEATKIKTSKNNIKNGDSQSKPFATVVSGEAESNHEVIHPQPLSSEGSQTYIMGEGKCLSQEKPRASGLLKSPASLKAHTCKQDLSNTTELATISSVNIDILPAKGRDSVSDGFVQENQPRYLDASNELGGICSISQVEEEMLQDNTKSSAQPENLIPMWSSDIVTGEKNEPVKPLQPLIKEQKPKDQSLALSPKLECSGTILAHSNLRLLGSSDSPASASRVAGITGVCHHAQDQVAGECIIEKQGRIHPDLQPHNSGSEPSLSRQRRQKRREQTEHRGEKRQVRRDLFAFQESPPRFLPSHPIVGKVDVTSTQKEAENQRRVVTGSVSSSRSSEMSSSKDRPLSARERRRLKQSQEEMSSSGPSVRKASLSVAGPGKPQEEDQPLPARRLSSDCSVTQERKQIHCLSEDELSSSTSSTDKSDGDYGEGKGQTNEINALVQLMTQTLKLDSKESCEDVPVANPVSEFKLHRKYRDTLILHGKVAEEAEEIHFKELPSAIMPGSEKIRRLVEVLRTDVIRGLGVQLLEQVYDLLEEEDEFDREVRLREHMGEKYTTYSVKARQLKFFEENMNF
Chain of Tyrosine-protein kinase TXK (Homo sapiens) (P42681 whole entry): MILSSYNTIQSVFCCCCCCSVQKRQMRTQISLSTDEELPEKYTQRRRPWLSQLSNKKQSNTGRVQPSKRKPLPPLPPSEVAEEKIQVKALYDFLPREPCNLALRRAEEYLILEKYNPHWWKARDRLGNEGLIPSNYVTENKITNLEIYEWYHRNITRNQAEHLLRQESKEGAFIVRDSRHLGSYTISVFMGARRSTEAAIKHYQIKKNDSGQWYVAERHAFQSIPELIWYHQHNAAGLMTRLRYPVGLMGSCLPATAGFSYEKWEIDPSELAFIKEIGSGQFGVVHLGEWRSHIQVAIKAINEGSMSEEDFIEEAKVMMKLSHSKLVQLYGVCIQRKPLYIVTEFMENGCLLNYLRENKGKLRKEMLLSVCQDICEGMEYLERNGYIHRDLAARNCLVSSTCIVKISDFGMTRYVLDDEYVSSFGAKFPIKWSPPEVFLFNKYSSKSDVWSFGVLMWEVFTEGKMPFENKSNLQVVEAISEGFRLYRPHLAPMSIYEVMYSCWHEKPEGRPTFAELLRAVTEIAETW
Chain of Casein kinase I isoform delta (Homo sapiens) (P48730 whole entry, looked up, canonical isoform): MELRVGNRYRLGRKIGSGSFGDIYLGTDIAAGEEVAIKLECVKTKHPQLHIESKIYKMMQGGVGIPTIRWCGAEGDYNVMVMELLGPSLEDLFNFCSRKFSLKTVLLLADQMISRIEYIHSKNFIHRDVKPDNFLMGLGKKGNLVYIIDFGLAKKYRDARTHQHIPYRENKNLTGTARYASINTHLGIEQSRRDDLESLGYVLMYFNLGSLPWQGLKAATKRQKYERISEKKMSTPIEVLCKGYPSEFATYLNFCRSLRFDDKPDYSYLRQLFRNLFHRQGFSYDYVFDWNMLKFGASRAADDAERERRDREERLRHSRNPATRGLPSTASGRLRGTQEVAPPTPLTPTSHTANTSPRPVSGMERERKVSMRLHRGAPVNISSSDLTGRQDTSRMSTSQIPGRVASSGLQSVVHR
Chain of Aurora kinase B (Homo sapiens) (Q96GD4 whole entry): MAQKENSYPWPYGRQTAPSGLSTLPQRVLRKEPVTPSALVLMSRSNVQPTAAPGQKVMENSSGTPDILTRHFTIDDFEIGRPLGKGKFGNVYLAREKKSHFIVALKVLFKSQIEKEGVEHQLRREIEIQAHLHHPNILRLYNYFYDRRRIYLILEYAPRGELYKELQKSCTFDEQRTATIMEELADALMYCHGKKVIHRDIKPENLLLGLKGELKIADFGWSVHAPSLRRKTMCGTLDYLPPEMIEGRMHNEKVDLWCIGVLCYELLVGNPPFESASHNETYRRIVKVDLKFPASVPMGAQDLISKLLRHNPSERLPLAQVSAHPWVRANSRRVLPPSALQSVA

Row | SMILES | residual activity [1] [%] | residual activity [2] [%] | residual activity [3] [%] | residual activity [4] [%] | residual activity [5] [%] | residual activity [6] [%] | residual activity [7] [%] | residual activity [8] [%] | residual activity [9] [%] | residual activity [10] [%] | residual activity [11] [%] | residual activity [12] [%] | residual activity [13] [%] | residual activity [14] [%] | residual activity [15] [%] | residual activity [16] [%] | residual activity [17] [%] | residual activity [18] [%] | residual activity [19] [%] | residual activity [20] [%] | other results
1 | CCCCN(CCCC)C(=O)CN1C[C@@H](c2cc(OC)c3c(c2)OCO3)[C@H](C(=O)O)[C@H]1CC(C)(C)CCC [A-545] | 100 | 77.6 | 100 | 100 | 93.9 | 75.7 | 99.6 | 100 | 100 | 92.3 | 100 | 100 | 98.9 | 100 | 94.3 | 91 | 100 | 98.7 | 100 | 100 | residual activity [21]: 100%; residual activity [22]: 85.5%; inhibition (Mu-type opioid receptor): 58.5%; residual activity [23]: 84.4%; residual activity [24]: 100%; inhibition [25]: 69.9%; residual activity [26]: 100%; residual activity [27]: 94%; residual activity [28]: 100%; residual activity [29]: 96.8%; residual activity [30]: 100%; residual activity [31]: 83.5%; residual activity [32]: 100%; residual activity [33]: 82.2%; residual activity [34]: 74.9%; residual activity [35]: 92.1%; inhibition [36]: 23%; inhibition [37]: 3.71%; residual activity [38]: 86.7%
2 | CCCCN(CCCC)C(=O)CN1C[C@H](c2cc(OC)c3c(c2)OCO3)[C@@H](C(=O)O)[C@@H]1CC(C)(C)CCC [ABT-546] | 100 | 69.2 | 100 | 100 | 85 | 100 | 100 | 100 | 100 | 90.4 | 94.3 | 76.4 | 100 | 100 | 100 | 100 | 86.9 | 100 | 60.6 | 100 | residual activity [21]: 100%; residual activity [22]: 88.7%; inhibition (Mu-type opioid receptor): 14.2%; residual activity [23]: 100%; residual activity [24]: 96.1%; inhibition [25]: -1.47%; residual activity [26]: 100%; residual activity [27]: 80.2%; residual activity [28]: 100%; residual activity [29]: 100%; residual activity [30]: 100%; residual activity [31]: 100%; residual activity [32]: 85%; residual activity [33]: 100%; residual activity [34]: 100%; residual activity [35]: 100%; inhibition [36]: -0.591%; inhibition [37]: -1.89%; residual activity [38]: 79%
